Test results as given in US11312716B2, “9H-pyrrolo-dipyridine derivatives” (UCB Biopharma SRL, priority 2015, dated 2022).

Assays:
rat MAO-A enzyme = rat MAO-A enzyme (Rattus norvegicus (Rat), UniProt P21396); test: Rat MAO-A binding, competition for [3H]Ro 41-1049 in rat cerebral cortex; details: for inhibition at 0.01 µM: 10 nM [3H]Ro 41-1049, read-out: Rat MAO-A Binding INHIB 10 nM; for inhibition at 0.1 µM: 10 nM [3H]Ro 41-1049, read-out: Rat MAO-A Binding INHIB 100 nM
Experimental: Compound selectivity for Tau protein was assessed as compared to a broad panel of receptors, enzymes and ion channels. Selectivity profiling of 10 μM compounds against a panel of 81 targets (n=1 with data in duplicate) was performed. Compounds affinity for rat MAO-A enzyme was assessed in rat cerebral cortex by competition experiment for 10 nM [^3H]Ro 41-1049 and increasing concentrations of test compounds. Compounds affinity for human MAO-A enzyme (1 μg/assay, Sigma-Aldrich, Diegem, Belgium) was assessed by saturation binding experiment performed as described above with [^3H]compounds.

[1] = Rat brain free fraction (Fu) measurement by equilibrium dialysis; details: male, Sprague-Dawley, brain homogenate (25% w/v in PBS), pH 7.4
[2] = brain homogenate

rat MAO-A enzyme, sequence (P21396 whole entry): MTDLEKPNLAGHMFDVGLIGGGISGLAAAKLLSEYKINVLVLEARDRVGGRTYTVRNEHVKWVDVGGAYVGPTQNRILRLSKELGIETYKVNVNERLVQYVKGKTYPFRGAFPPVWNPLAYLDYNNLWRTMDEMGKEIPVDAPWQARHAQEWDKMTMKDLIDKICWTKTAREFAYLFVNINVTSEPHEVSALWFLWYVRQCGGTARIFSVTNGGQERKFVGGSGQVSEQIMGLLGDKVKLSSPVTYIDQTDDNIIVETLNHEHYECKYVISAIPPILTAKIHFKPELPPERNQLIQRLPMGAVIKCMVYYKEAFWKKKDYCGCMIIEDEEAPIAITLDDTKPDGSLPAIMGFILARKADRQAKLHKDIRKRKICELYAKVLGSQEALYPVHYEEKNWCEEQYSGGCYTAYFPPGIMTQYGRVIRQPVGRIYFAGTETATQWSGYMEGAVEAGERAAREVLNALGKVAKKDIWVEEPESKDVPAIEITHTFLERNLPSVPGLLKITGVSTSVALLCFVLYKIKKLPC

inhibition at 0.01 µM (rat MAO-A enzyme; 10 nM test compound) [%]	inhibition at 0.1 µM (rat MAO-A enzyme; 100 nM test compound) [%]	fraction unbound at 4 h, 1 μM [1]	Rat MAO-A Binding INHIB 10 nM (rat MAO-A enzyme; 10 nM test compound, 10 nM [3H]Ro 41-1049) [%]	Rat MAO-A Binding INHIB 100 nM (rat MAO-A enzyme; 100 nM test compound, 10 nM [3H]Ro 41-1049) [%]	Fu Rat Brain [2] [%]	Compound
7	46	0.005				c1cc2[nH]c3nc(-c4cnc(N5CCOCC5)s4)ccc3c2cn1 [Example 32, 4-(5-(9H-pyrrolo[2,3-b:4,5-c′]dipyridin-2-yl)thiazol-2-yl)morpholine]
		0.011				Cc1cc2[nH]c3nc(-c4ccc(F)nc4)ccc3c2cn1 [Example 45, 2-(6-fluoropyridin-3-yl)-7-methyl-9H-pyrrolo[2,3-b:4,5-c′]dipyridine]
16	39	0.007				COc1cnn(-c2ccc3c(n2)[nH]c2ccncc23)c1 [Example 31, 2-(4-methoxy-1H-pyrazol-1-yl)-9H-pyrrolo[2,3-b:4,5-c′]dipyridine]
11	12					CNC(=O)c1ccc(-c2ccc3c(n2)[nH]c2cc(C)ncc23)cn1 [Example 46, N-methyl-5-(7-methyl-9H-pyrrolo[2,3-b:4,5-c′]dipyridin-2-yl)picolinamide]
6	9	0.005				CNc1ccc(-c2ccc3c(n2)[nH]c2cnccc23)cn1 [Example 55, N-methyl-5-(9H-pyrrolo[2,3-b:5,4-c′]dipyridin-2-yl)pyridin-2-amine]
3	6	0.045				Cn1cc(-c2ccc3c(n2)[nH]c2cnccc23)cn1 [Example 51, 2-(1-methyl-1H-pyrazol-4-yl)-9H-pyrrolo[2,3-b:5,4-c′]dipyridine]
1	8	0.013				Fc1ccc(-c2ccc3c(n2)[nH]c2ncccc23)cn1 [Example 57, 2-(6-fluoropyridin-3-yl)-9H-pyrrolo[2,3-b:5,4-b′]dipyridine]
2	9					COCCNC(=O)c1ccc(-c2ccc3c(n2)[nH]c2ccncc23)cn1 [Example 30, N-(2-methoxyethyl)-5-(9H-pyrrolo[2,3-b:4,5-c′]dipyridin-2-yl)picolinamide]
		0.005				CNc1ccc(C(=O)Nc2ccc3c(n2)[nH]c2ccncc23)cn1 [Example 35, 6-(methylamino)-N-(9H-pyrrolo[2,3-b:4,5-c′]dipyridin-2-yl)nicotinamide]
10	12	0.019				Fc1ccc(-c2ccc3c(n2)[nH]c2cnccc23)cn1 [Example 54, 2-(6-fluoropyridin-3-yl)-9H-pyrrolo[2,3-b:5,4-c′]dipyridine]
2	9					CN(C)c1cc2[nH]c3nc(-c4cnn(C)c4)ccc3c2cn1 [Example 44, N,N-dimethyl-2-(1-methyl-1H-pyrazol-4-yl)-9H-pyrrolo[2,3-b:4,5-c′]dipyridin-7-amine]
-9	-4					CNC(=O)c1ccc(-c2ccc3c(n2)[nH]c2cc(COC)ncc23)cn1 [Example 49, 5-(7-(methoxymethyl)-9H-pyrrolo[2,3-b:4,5-c′]dipyridin-2-yl)-N-methylpicolinamide]
		0.026				c1cc2c(cn1)[nH]c1nc(-c3cn[nH]c3)ccc12 [Example 52, 2-(1H-pyrazol-4-yl)-9H-pyrrolo[2,3-b:5,4-c′]dipyridine]
-10	-13	0.015				CNC(=O)c1ccc(-c2ccc3c(n2)[nH]c2cnccc23)cn1 [Example 53, N-methyl-5-(9H-pyrrolo[2,3-b:5,4-c′]dipyridin-2-yl)picolinamide]
1	7	0.04				COCc1cc2[nH]c3nc(-c4cnn(C)c4)ccc3c2cn1 [Example 50, 7-(methoxymethyl)-2-(1-methyl-1H-pyrazol-4-yl)-9H-pyrrolo[2,3-b: 4,5-c′]dipyridine]
-1	10	0.028				Cc1cc2[nH]c3nc(-c4cnn(C)c4)ccc3c2cn1 [Example 47, 7-methyl-2-(1-methyl-1H-pyrazol-4-yl)-9H-pyrrolo[2,3-b: 4,5-c′]dipyridine]
		0.005				COc1cc2[nH]c3nc(-c4ccc(F)nc4)ccc3c2cn1 [Example 36, 2-(6-fluoropyridin-3-yl)-7-methoxy-9H-pyrrolo[2,3-b:4,5-c′]dipyridine]

Second part, the compound before the results:

Compound	inhibition at 0.01 µM (rat MAO-A enzyme; 10 nM test compound) [%]	inhibition at 0.1 µM (rat MAO-A enzyme; 100 nM test compound) [%]	fraction unbound at 4 h, 1 μM [1]	Rat MAO-A Binding INHIB 10 nM (rat MAO-A enzyme; 10 nM test compound, 10 nM [3H]Ro 41-1049) [%]	Rat MAO-A Binding INHIB 100 nM (rat MAO-A enzyme; 100 nM test compound, 10 nM [3H]Ro 41-1049) [%]	Fu Rat Brain [2] [%]
c1cc2[nH]c3nc(-c4cn[nH]c4)ccc3c2cn1 [Example 9, 2-(1H-pyrazol-4-yl)-9H-pyrrolo[2,3-b:4,5-c′]dipyridine]	-5	7	0.036			
Oc1ccc(-c2ccc3c(n2)[nH]c2ccncc23)cn1 [Example 6, 5-(9H-pyrrolo[2,3-b:4,5-c′]dipyridin-2-yl)pyridin-2-ol]			0.098			
O=C(NCCF)c1ccc(-c2ccc3c(n2)[nH]c2ccncc23)cn1 [Example 29, N-(2-fluoroethyl)-5-(9H-pyrrolo[2,3-b:4,5-c′]dipyridin-2-yl)picolinamide]	8	23				
c1cnc(N2CCN(c3ccc4c(n3)[nH]c3ccncc34)CC2)nc1 [Example 13, 2-(4-(pyrimidin-2-yl)piperazin-1-yl)-9H-pyrrolo[2,3-b:4,5-c′]dipyridine]			0.011			
COc1cc(-c2ccc3c(n2)[nH]c2ccncc23)ccn1 [Example 2, 2-(2-methoxypyridin-4-yl)-9H-pyrrolo[2,3-b:4,5-c′]dipyridine]			0.009			
FCCn1cc(-c2ccc3c(n2)[nH]c2ccncc23)cn1 [Example 25, 2-[1-(2-fluoroethyl)-1H-pyrazol-4-yl]-9H-pyrrolo[2,3-b: 4,5-c′]dipyridine]	13	2	0.087			
Cc1cc(-c2ccc3c(n2)[nH]c2ccncc23)n[nH]1 [Example 24, 2-(5-methyl-1H-pyrazol-3-yl)-9H-pyrrolo[2,3-b:4,5-c′]dipyridine]	7	9	0.02			
c1cc2[nH]c3nc(-c4ccc(N5CCOCC5)nc4)ccc3c2cn1 [Example 21, 4-(5-(9H-pyrrolo[2,3-b:4,5-c′]dipyridin-2-yl)pyridin-2-yl)morpholine]			0.005			
COc1ccc(-c2ccc3c(n2)[nH]c2ccncc23)cn1 [Example 5, 2-(6-methoxypyridin-3-yl)-9H-pyrrolo[2,3-b:4,5-c′]dipyridine]	8	39	0.006			
COc1ncc(-c2ccc3c(n2)[nH]c2ccncc23)cc1F [Example 7, 2-(5-fluoro-6-methoxypyridin-3-yl)-9H-pyrrolo[2,3-b:4,5-c′]dipyridine]			0.005			
c1cc(N2CCN(c3ccc4c(n3)[nH]c3ccncc34)CC2)ccn1 [Example 14, 2-(4-(pyridin-4-yl)piperazin-1-yl)-9H-pyrrolo[2,3-b:4,5-c′]dipyridine]			0.019			
c1cc2[nH]c3nc(-c4cnc(N5CCOCC5)nc4)ccc3c2cn1 [Example 10, 4-(5-(9H-pyrrolo[2,3-b:4,5-c′]dipyridin-2-yl)pyrimidin-2-yl)morpholine]			0.011			
Cn1cc(-c2ccc3c(n2)[nH]c2ccncc23)cn1 [Example 4, 2-(1-methyl-1H-pyrazol-4-yl)-9H-pyrrolo[2,3-b:4,5-c′]dipyridine]	21	50	0.075			
CNC(=O)c1ccc(-c2ccc3c(n2)[nH]c2ccncc23)cn1 [Example 11, N-methyl-5-(9H-pyrrolo[2,3-b:4,5-c′]dipyridin-2-yl)pyridine-2-carboxamide]	-12	-7	0.028			
c1cc2[nH]c3nc(-c4ccn[nH]4)ccc3c2cn1 [Example 15, 2-(1H-pyrazol-3-yl)-9H-pyrrolo[2,3-b:4,5-c′]dipyridine]			0.056			
N-methyl-5-(9H-pyrrolo[2,3-b:4,5-c′]dipyridin-7-yl)picolinamide [Example 60]				−3	−1	0.5
COCCNc1ncc(-c2ccc3c(n2)[nH]c2ccncc23)cn1 [Example 22, N-(2-methoxyethyl)-5-(9H-pyrrolo[2,3-b:4,5-c′]dipyridin-2-yl)pyrimidin-2-amine]	8	15				
Nc1ncc(-c2ccc3c(n2)[nH]c2ccncc23)cc1F [Example 12, 3-fluoro-5-(9H-pyrrolo[2,3-b:4,5-c′]dipyridin-2-yl)pyridin-2-amine]	8	13	0.005			
